Laboratory results reported in PMC5424146, “Activity-based protein profiling as a robust method for enzyme identification and screening in extremophilic Archaea” (Nature Communications, 2017).

Assays:
[1] = molecular target: T1, esterase/lipase Saci_1105 (1105) (Sulfolobus acidocaldarius, UniProt Q4J9S2); assay: biochemical
T1 construct: full gene under the maltose promoter (pSVAmZ-saci_1105) in S. acidocaldarius esterase double knockout; crude lysate or living cells

TM_1022 [2] = molecular target: T2, TM_1022 (Thermotoga maritima, UniProt G4FEX6); assay: esterase activity, pNP-octanoate hydrolysis, lysate of double knockout expressing TM_[…]; also competitive labelling at […]; format: biochemical; settings: pNP-octanoate 0.5 mM; pH 8.0; 35 °C; pre-incubation 1 h at 60 °C; covalent
T2 construct: gene with own promoter (about 500 bp upstream; pSVA-p-tm1022) in S. acidocaldarius esterase double knockout
T2 sequence (G4FEX6 1-253): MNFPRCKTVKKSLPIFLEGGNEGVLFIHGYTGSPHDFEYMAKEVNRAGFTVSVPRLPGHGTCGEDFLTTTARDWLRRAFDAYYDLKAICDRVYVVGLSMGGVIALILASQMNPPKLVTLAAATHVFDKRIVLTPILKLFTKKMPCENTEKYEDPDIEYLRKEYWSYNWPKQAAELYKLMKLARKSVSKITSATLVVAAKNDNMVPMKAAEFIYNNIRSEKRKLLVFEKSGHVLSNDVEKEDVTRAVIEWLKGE

[3] = molecular target: T3, acetylesterase Saci_1116 (1116) (Sulfolobus acidocaldarius, UniProt Q4J9R2); assay: esterase activity, pNP-octanoate hydrolysis at […] nm, lysate of delta […] strain; format: biochemical; settings: pNP-octanoate 0.5 mM; pH 8.0; 35 °C; pre-incubation 1 h at 60 °C; covalent
T3 construct: full gene under the maltose promoter (pSVA-saci_1116) in the esterase double knockout, or native protein in the delta 1105 strain
T3 sequence (Q4J9R2 1-305): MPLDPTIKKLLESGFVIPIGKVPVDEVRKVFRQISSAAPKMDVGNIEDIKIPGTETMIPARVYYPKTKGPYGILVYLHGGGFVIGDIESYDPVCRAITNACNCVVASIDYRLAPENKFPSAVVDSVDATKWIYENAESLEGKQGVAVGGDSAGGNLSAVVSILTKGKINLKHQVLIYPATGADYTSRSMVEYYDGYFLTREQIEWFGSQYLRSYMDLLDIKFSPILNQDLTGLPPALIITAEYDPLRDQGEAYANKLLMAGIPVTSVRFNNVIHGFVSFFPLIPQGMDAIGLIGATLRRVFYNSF

TM_1022 [4] = molecular target: T2, TM_1022; assay: halo on indicator plate, double knockout expressing TM_[…]; format: cell-based; settings: 1% (v/v) in plate; 78 °C; up to 3 days

T1 sequence (Q4J9S2 1-306): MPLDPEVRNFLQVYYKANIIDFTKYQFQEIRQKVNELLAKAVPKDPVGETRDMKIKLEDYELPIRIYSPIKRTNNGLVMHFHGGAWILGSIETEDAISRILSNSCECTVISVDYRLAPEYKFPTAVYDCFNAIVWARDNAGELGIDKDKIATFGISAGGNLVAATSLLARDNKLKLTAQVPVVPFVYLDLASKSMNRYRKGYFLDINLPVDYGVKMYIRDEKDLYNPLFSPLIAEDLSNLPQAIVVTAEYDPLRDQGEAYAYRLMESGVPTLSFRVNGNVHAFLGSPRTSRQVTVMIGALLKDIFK

SMILES: C#CCNC(=O)OCCOCCOCCOCCP(=O)(OCC)Oc1ccc([N+](=O)[O-])cc1 (centres unmarked) [compound 2, NP≡]
- IC50 [1]: 150 nM

SMILES: CCOP(=O)(OCC)Oc1ccc([N+](=O)[O-])cc1 [paraoxon]
- reduced activity at 250 μM (TM_1022 [2]): pre-incubation with paraoxon led in all cases to a significantly reduced esterase activity
- reduced activity at 250 μM [3]: pre-incubation with paraoxon led in all cases to a significantly reduced esterase activity

SMILES: CCCC(=O)OCC(COC(=O)CCC)OC(=O)CCC [tributyrin]
- halo on indicator plate, double knockout expressing TM_1022 (TM_1022 [4]): For both substrates, a time-dependent formation of a halo could be observed for this culture

SMILES: CCCCCC(=O)OCC(COC(=O)CCCCC)OC(=O)CCCCC [tricaproin]
- halo on indicator plate, double knockout expressing TM_1022 (TM_1022 [4]): the halo for the tricaproin substrate was thereby slightly larger than for tributyrate
